Measurements as given in patent US8742156B2 (priority 2010, dated 2014).
Structures can show the parent of a compound that is named as a salt.

Test system: H1N1 virus (A/Vicotria/07159200/07 (Tamiflu-resistant strain))
Assay type: cell-based, Human influenza H1N1 virus
Settings: for effect on viral titers of Tamiflu-resistant (Tami-R) H1N1 virus: FIG. 1, multiplicity of infection of 0.2

| Structure (SMILES) | effect on viral titers of Tamiflu-resistant (Tami-R) H1N1 virus | viral titer of Tami-R H1N1-infected cells decreased (fold) (FIG. 1, multiplicity of infection of 0.2, 48-hour post-infection) | Tami-R H1N1 viral titers decreased (%) (10 uM, multiplicity of infection of 0.2, 48-hour post-infection) |
| --- | --- | --- | --- |
| N=C(Nc1ccccc1)SCCCSC(=N)Nc1ccccc1 [Compound 58, Carbamimidothioic acid, phenyl-, 1,3-propanediyl ester, dihydrobromide] | potent inhibitory effects | 4 | – |
| CCOC(=O)C1=C[C@@H](OC(CC)CC)[C@H](NC(C)=O)[C@@H](N)C1 [Tamiflu, oseltamivir, reference compound] | minimal effects | – | 20 |
